The values that follow come from publication PMC11511194, “Key Factors for Improving Predictive Accuracy and Avoiding Overparameterization of the PBPK Absorption Model in Food Effect Studies of Weakly Basic Water-Insoluble Compounds in Immediate Release Formulations” (Pharmaceutics, 2024).

The subject of series [1] is CYP3A4. Kind of series: CYP3A4 intrinsic clearance fitted in PBPK model. To be noted: Fitted to clinical PK profiles. From the text: (§1) S2. PBPK model development and validation physicochemical parameters for these three model drugs, including protein binding and Blood-to-Plasma (B/P) ratio, were obtained from experimental results, while log P and pKa were estimated based on the molecular formula using Gastro Plus ADMET software (version 10.3, […]
(§2) S2.1. Rivaroxaban PBPK model development and validation
S2.1.1. Rivaroxaban PBPK model development for metabolism and elimination module Given that the metabolic fractions of CYP3A4 and CYP2J2 to the systemic clearance of rivaroxaban were approximately 18% and 14% [1], respectively, and liver hydrolases contributed to about 14% of its systemic clearance, CLint_CYP3A4, CLint_CYP2J2 and CLHLM were fitted according to the metabolic fraction of rivaroxaban in vivo and concentration-time profiles from the SAD clinical trial in Caucasian subjects under fasted state. Considering that rivaroxaban was a substrate of P-gp transporter, and that about 36% and 7% of the parent drug were directly excreted by the kidney and liver, respectively, rivaroxaban may undergo active efflux through the kidney and liver in vivo [2]. Consequently, permeability-limited kidney and liver models were employed to account for the active efflux mechanism of P-gp for rivaroxaban. These models include both passive diffusion and active transport.
Clearances for passive diffusion in the kidney and liver was calculated using Equation S1 [5] and Equation S2 [6], respectively.
CL௉஽,௜ =2×P௔௣௣ × TSA௜ ሺS1ሻ where CLPD,i is the passive diffusion clearance of the drug in compartment i, Papp is the apparent permeability of the drug, and the TSAi is the regional tubular surface area of compartment i.
Log CL௉஽ =0.82×logD଻.ସ +0.5 ሺS2ሻ where CLPD is the passive diffusional clearance of APIs in the liver, and log D 7.4 is the oil-water partition coefficient at pH 7.4 [6] […]
Blood-to-plasma partition ratio 0.714 Measured
Fraction unbound in plasma 0.065 Measured […]
Caco-2(10-6cm/s) (Rivaroxaban) 8.103 Measured […]

Series [2] is described as follows: Equilibrium solubility of APIs in aqueous and biorelevant media. The series is classed as physicochemical. The settings on record: 37 °C. As for the experimental part: To evaluate the effect of pH and bile salt concentration within the physiological range on the solubility of APIs, the equilibrium solubility of APIs in various aqueous and biorelevant media was comprehensively investigated. Specifically, aqueous buffers, including pH 1.0 and pH 2.0 HCl solutions; pH 3.0 and pH 4.5 acetum; and pH 5.0, pH 6.5, and pH 8.0 phosphate buffer solutions (PBS), were prepared according to the guidelines outlined in the Chinese Pharmacopoeia. Additionally, biorelevant media such as FaSSGF, FaSSIF, and FeSSIF were prepared following the prescribed method for biorelevant power. An excess amount of solid drug powder was added to vials containing 20 mL of the corresponding medium, and tests were conducted with continuous stirring at 37 °C for 24 h. Drug concentration was detected every minute through an in situ fiber-optic UV dissolution real-time monitoring system (Pion Scientific Instruments, Billerica, MA, USA). All measurements were performed in triplicate.

Series [3] deals with ABCB1 (P-gp/MDR1). Kind of series: P-gp efflux clearance in kidney and liver fitted in PBPK model. To be noted: human, permeability-limited liver model, Canalicular, read-out: CLint,T.
From the text: as §1, §2
(§3) S2.1.1. Rivaroxaban PBPK model development for metabolism and elimination module […]
(§4) its systemic clearance, CLint_CYP3A4, CLint_CYP2J2 and CLHLM were fitted according to the metabolic fraction of rivaroxaban in vivo and concentration-time profiles from the SAD clinical trial in Caucasian subjects under fasted state. […]
(§5) permeability-limited kidney and liver models were employed to account for the active efflux […]
(§6) Physicochemical properties

For series [4], the system named is CYP2J2. Kind of series: CYP2J2 intrinsic clearance fitted in PBPK model. To be noted: Fitted to in vivo metabolic fraction and SAD C-T profiles.
From the text: as §1, §2, §3, §4, §5, §6

A short description of series [5]: Passive diffusion clearance and unbound fractions of permeability-limited kidney and liver models. To be noted: Liver, Fitted.
From the text: as §1, §2, §3, §4, §5, §6

The nature of series [6]: Apparent permeability assay in biorelevant media (PAMPA). The series is classed as in vitro ADME. The settings on record: for PAMPA: optimized ticagrelor model input; for Papp: PAMPA, parallel artificial membrane. How it is done: In light of observed distinctions in the apparent permeability of drugs in biorelevant media compared to standard media, the apparent permeability of ticagrelor in FaSSIF and FeSSIF media was measured using the published method with the parallel artificial membrane. The apparent permeability of rivaroxaban and PB-201 (Drug-A) in biorelevant media was referenced from the published results.
On the technique in general: The PAMPA barrier holds no transporters, so it reflects passive diffusion.

Where [7] appears, read: HCl solution, simulated gastric fluid, thermodynamic from solid, pH 1.0 HCl.
[8] abbreviates: HCl solution, simulated gastric fluid, thermodynamic from solid, pH 2.0 HCl.
Where [9] appears, read: aqueous buffer, thermodynamic from solid, pH 3.0 Acetic acid buffer.
Where [10] appears, read: aqueous buffer, thermodynamic from solid, pH 4.5 Acetic acid buffer.
The mark [11] stands for this setting: phosphate buffer solution (PBS), aqueous buffer, thermodynamic from solid, pH 5.0 PBS.
The mark [12] stands for this setting: phosphate buffer solution (PBS), pH 6.5 PBS.
Setting [13] is: phosphate buffer solution (PBS), pH 8.0 PBS.
Where [14] appears, read: thermodynamic from solid, pH 5.0 FeSSIF.
[15] abbreviates: thermodynamic from solid, pH 6.5 FaSSIF.

≈ marks a conversion by molar mass, not a printed value.

Broadly, the thermodynamic solubility is the concentration in solution at equilibrium with solid. As to `O=C(NC[C@H]1CN(c2ccc(N3CCOCC3=O)cc2)C(=O)O1)c1ccc(Cl)s1` [Rivaroxaban], the “Intrinsic clearance of CYP 3A4” value in series [1] was determined as 0.027 µL/min/pmol. In addition, the solubility (thermodynamic) at 24 h in series [2] (setting [7]) is 6.84 µg/mL (≈ 15.7 µM); in series [2] (setting [8]) it was 8.18 µg/mL (≈ 18.8 µM); in series [2] (setting [9]) it was 10.6 µg/mL (≈ 24.3 µM); in series [2] (setting [10]) it was 6.55 µg/mL (≈ 15 µM); in series [2] (pH 1.6 FaSSGF), 7.5 µg/mL (≈ 17.2 µM); in series [2] (setting [11]) it was 4.85 µg/mL (≈ 11.1 µM). Besides, the solubility (thermodynamic) at 24 h turned out to be 5.84 µg/mL (≈ 13.4 µM) in series [2] (setting [12]), 5.87 µg/mL (≈ 13.5 µM) in series [2] (setting [13]), 10.6 µg/mL (≈ 24.3 µM) in series [2] (setting [14]) and 6.17 µg/mL (≈ 14.2 µM) in series [2] (setting [15]). For the same compound, the hepatocyte CLint in series [3] came to 0.03 µL/min/1e6 cells. For the same compound, in series [4], the “Intrinsic clearance of CYP 2J2” value was determined as 2.500 µL/min/pmol. Also, the fuIW in series [5] stood at 0.193.
Broadly, the Papp is the rate of passage across a membrane or cell layer, normalised by area and donor concentration. `CCCSc1nc(N[C@@H]2C[C@H]2c2ccc(F)c(F)c2)c2nnn([C@@H]3C[C@H](OCCO)[C@@H](O)[C@H]3O)c2n1` [Ticagrelor]: the “Intrinsic clearance of CYP 3A4” value in series [1] amounted to 5.00 µL/min/pmol. Also, the PAMPA in series [6] (Fasted (FaSSIF)) was 90.2 10E-06 cm/s; in series [6] (Fed (FeSSIF)), 14.30 10E-06 cm/s. The apparent permeability coefficient (Papp) was determined as 902 nm/s in series [6] (FaSSIF) and 143 nm/s in series [6] (FeSSIF). The solubility (thermodynamic) at 24 h is 18 µg/mL (≈ 34.4 µM) in series [2] (setting [7]); 8.04 µg/mL (≈ 15.4 µM) in series [2] (setting [8]); 11.6 µg/mL (≈ 22.2 µM) in series [2] (setting [9]); 7.47 µg/mL (≈ 14.3 µM) in series [2] (setting [10]); 14.2 µg/mL (≈ 27.2 µM) in series [2] (pH 1.6 FaSSGF); 6.35 µg/mL (≈ 12.2 µM) in series [2] (setting [11]). For the same compound, the thermodynamic solubility at 24 h was 5.97 µg/mL (≈ 11.4 µM) in series [2] (setting [12]), 5.52 µg/mL (≈ 10.6 µM) in series [2] (setting [13]), 4050 µg/mL (≈ 7750 µM) in series [2] (setting [14]) and 306 µg/mL (≈ 586 µM) in series [2] (setting [15]).
